Measured values as given in ChEMBL document CHEMBL5385959, “Trifluoroacetic acid-mediated synthesis of xanthene constructs and their extensive anti-tuberculosis evaluation” (RSC Med Chem, 2024).
≈ marks a conversion by molar mass, not a printed value. Calls of active or inactive are those of the source. No cut-off for these calls is given here.

Tests used:
Bacillus subtilis = test: Antibacterial activity against Bacillus subtilis assessed as reduction in bacterial growth incubated for 24 hrs by broth dilution method; format: functional
Pseudomonas aeruginosa = test: Antibacterial activity against Pseudomonas aeruginosa assessed as reduction in bacterial growth incubated for 24 hrs by broth dilution method; format: functional
[1] = test system: Mycobacterium tuberculosis; test: Antibacterial activity against Mycobacterium tuberculosis H37Ra assessed as reduction in bacterial growth incubated for 14 days by CLSI protocol based method; format: functional; details: 336 h, time 14 day
Escherichia coli = test: Antibacterial activity against Escherichia coli assessed as reduction in bacterial growth incubated for 24 hrs by broth dilution method; format: functional
[2] = test system: Mycobacterium tuberculosis; test: Antibacterial activity against Mycobacterium tuberculosis H37Rv assessed as reduction in bacterial growth incubated for 14 days by CLSI protocol based method; format: functional; details: 336 h, time 14 day
[3] = test system: Mycobacterium tuberculosis; test: Antibacterial activity against GFP-tagged Mycobacterium tuberculosis H37Rv assessed as reduction in GFP expression at half times MIC incubated for 7 days by confocal microscopic analysis; format: functional, organism-based; details: time 7.0 day
[4] = test system: Mycobacterium tuberculosis; test: Antibacterial activity against Mycobacterium tuberculosis H37Rv assessed as reduction in bacterial growth by broth microdilution method; format: functional

## O=C1CCCC2=C1C(c1cccc([N+](=O)[O-])c1)C1=C(CCCC1=O)O2
Bacillus subtilis
  MIC: > 128 µg/mL
Pseudomonas aeruginosa
  MIC: > 128 µg/mL
[1]
  MIC: 64 µg/mL (≈ 189 µM)
Escherichia coli
  MIC: > 128 µg/mL
[2]
  MIC: 64 µg/mL (≈ 189 µM)

## O=C1CCCC2=C1C(c1ccc(Br)cc1)C1=C(CCCC1=O)O2
Bacillus subtilis
  MIC: > 128 µg/mL
Pseudomonas aeruginosa
  MIC: > 128 µg/mL
[1]
  MIC: 64 µg/mL (≈ 171 µM)
Escherichia coli
  MIC: > 128 µg/mL
[2]
  MIC: 64 µg/mL (≈ 171 µM)

## N#CC1=C(N)OC2=C(C(=O)CCC2)C1c1ccccc1 (stereo unspecified)
[2]
  MIC: > 64 µg/mL

## O=C1CCCC2=C1C(c1ccccc1)C1=C(CCCC1=O)O2
Bacillus subtilis
  MIC: > 128 µg/mL
Pseudomonas aeruginosa
  MIC: > 128 µg/mL
[1]
  MIC: 64 µg/mL (≈ 217 µM)
Escherichia coli
  MIC: > 128 µg/mL
[2]
  MIC: 64 µg/mL (≈ 217 µM)

## O=C1CCCC2=C1C(c1cccc(Cl)c1)C1=C(CCCC1=O)O2
Bacillus subtilis
  MIC: > 128 µg/mL
Pseudomonas aeruginosa
  MIC: > 128 µg/mL
[1]
  MIC: 64 µg/mL (≈ 195 µM)
Escherichia coli
  MIC: > 128 µg/mL
[2]
  MIC: 64 µg/mL (≈ 195 µM)

## O=C1CCCC2=C1C(c1cccc(O)c1)C1=C(CCCC1=O)O2
Bacillus subtilis
  MIC: > 128 µg/mL
Pseudomonas aeruginosa
  MIC: > 128 µg/mL
[1]
  MIC: 64 µg/mL (≈ 206 µM)
Escherichia coli
  MIC: > 128 µg/mL
[2]
  MIC: 64 µg/mL (≈ 206 µM)

## CC1(C)CC(=O)C2=C(C1)OC1=C(C(=O)CC(C)(C)C1)C2c1ccc(O)cc1
Bacillus subtilis
  MIC: > 128 µg/mL
Pseudomonas aeruginosa
  MIC: > 128 µg/mL
[1]
  MIC: 64 µg/mL (≈ 175 µM)
Escherichia coli
  MIC: > 128 µg/mL
[2]
  MIC: 64 µg/mL (≈ 175 µM)

## O=C1CCCC2=C1C(c1cccc(F)c1)C1=C(CCCC1=O)O2
Bacillus subtilis
  MIC: > 128 µg/mL
Pseudomonas aeruginosa
  MIC: > 128 µg/mL
[1]
  MIC: 64 µg/mL (≈ 205 µM)
Escherichia coli
  MIC: > 128 µg/mL
[2]
  MIC: 64 µg/mL (≈ 205 µM)

## N#CC1=C(N)Oc2c(c(=O)oc3ccccc23)C1c1ccc(O)cc1 (stereo unspecified)
[2]
  MIC: > 64 µg/mL

## COc1ccc(C2C3=C(CCCC3=O)OC3=C2C(=O)CCC3)cc1O
Bacillus subtilis
  MIC: > 128 µg/mL
Pseudomonas aeruginosa
  MIC: > 128 µg/mL
[1]
  MIC: 64 µg/mL (≈ 188 µM)
Escherichia coli
  MIC: > 128 µg/mL
[2]
  MIC: 64 µg/mL (≈ 188 µM)

## O=C1CCCC2=C1C(c1ccc([N+](=O)[O-])cc1)C1=C(CCCC1=O)O2
Bacillus subtilis
  MIC: > 128 µg/mL
Pseudomonas aeruginosa
  MIC: > 128 µg/mL
[1]
  MIC: 64 µg/mL (≈ 189 µM)
Escherichia coli
  MIC: > 128 µg/mL
[2]
  MIC: 64 µg/mL (≈ 189 µM)

## CC1(C)CC(=O)C2=C(C1)OC1=C(C(=O)CC(C)(C)C1)C2c1cccc(O)c1
Bacillus subtilis
  MIC: > 128 µg/mL
Pseudomonas aeruginosa
  MIC: > 128 µg/mL
[1]
  MIC: 64 µg/mL (≈ 175 µM)
Escherichia coli
  MIC: > 128 µg/mL
[2]
  MIC: 64 µg/mL (≈ 175 µM)

## COc1cccc(C2C3=C(CC(C)(C)CC3=O)OC3=C2C(=O)CC(C)(C)C3)c1
Bacillus subtilis
  MIC: > 128 µg/mL
Pseudomonas aeruginosa
  MIC: > 128 µg/mL
[1]
  MIC: 64 µg/mL (≈ 168 µM)
Escherichia coli
  MIC: > 128 µg/mL
[2]
  MIC: 64 µg/mL (≈ 168 µM)

## COc1cc(C2C3=C(CCCC3=O)OC3=C2C(=O)CCC3)ccc1O
Bacillus subtilis
  MIC: > 128 µg/mL
Pseudomonas aeruginosa
  MIC: > 128 µg/mL
[1]
  MIC: 64 µg/mL (≈ 188 µM)
Escherichia coli
  MIC: > 128 µg/mL
[2]
  MIC: 64 µg/mL (≈ 188 µM)

## CC1(C)CC(=O)C2=C(C1)OC1=C(C(=O)CC(C)(C)C1)C2c1cccc([N+](=O)[O-])c1
Bacillus subtilis
  MIC: > 128 µg/mL
Pseudomonas aeruginosa
  MIC: > 128 µg/mL
[1]
  MIC: 64 µg/mL (≈ 162 µM)
Escherichia coli
  MIC: > 128 µg/mL
[2]
  MIC: 64 µg/mL (≈ 162 µM)

## CC[C@@H](CO)NCCN[C@@H](CC)CO [ETHAMBUTOL]
[3]
  Activity: Active
[1]
  MIC: 0.019 µg/mL (≈ 0.093 µM)
[4]
  MIC: 8 µg/mL (≈ 39.2 µM)
[2]
  MIC: 1.25 µg/mL (≈ 6.12 µM)
